Data from patent US11414424B2, “Cardiac sarcomere inhibitors” (Cytokinetics, Inc., priority 2018, dated 2022).

Test system: bovine cardiac myofibrils
Experiment: Myofibril assay: PK/LDH-coupled steady-state ATPase activity of skinned bovine cardiac myofibrils
Type: biochemical
Conditions: Ca2+ activating to 75% of maximal rate
Method: To evaluate the effect of compounds on the ATPase activity of full-length cardiac myosin in the context of the native sarcomere, skinned myofibril assays were performed. Bovine cardiac myofibrils were obtained by homogenizing bovine cardiac left ventricular tissue in the presence of a detergent such as triton X-100. Such treatment removes membranes and a majority of the soluble cytoplasmic proteins but leaves intact the cardiac sarcomeric acto-myosin apparatus. Myofibril preparations retain the ability to hydrolyze ATP in a Ca^2+ regulated manner. ATPase activities of such myofibril preparations in the presence and absence of compounds were assayed at Ca^2+ concentrations activating to a defined fraction of the maximal rate (i.e., […], 75%). Small molecule agents were assessed for their ability to inhibit the steady-state ATPase activity of bovine cardiac myofibrils using pyruvate kinase and lactate dehydrogenase (PK/LDH)-coupled enzyme system. This assay regenerates myosin-produced ADP into ATP by oxidizing NADH, producing an absorbance change at 340 nm. Prior to testing small molecule agents, the bovine cardiac myofibrils were assessed for their calcium responsiveness and the calcium concentration that achieves either a 50% (pCa50) or 75% (pCa75) activation of the myofibril system was chosen as the final condition for assessing the inhibitory activity of the small molecule agents. All enzymatic activity was measured in a buffered solution containing 12 mM PIPES (piperazine-N,N′-bis(2-ethanesulfonic acid), 2 mM magnesium chloride at pH 6.8 (PM 12 buffer). Final assay conditions were 1 mg/mL of bovine cardiac myofibrils, 4 U/mL pyruvate kinase, 6 U/mL lactate dehydrogenase, 50 μM ATP, 0.1 mg/mL BSA (bovine serum albumin), 10 ppm antifoam, 1 mM DTT, 0.5 mM NADH, 1.5 mM PEP, 0.6 mM EGTA, and an amount of CaCl2 sufficient to achieve either 50% or 75% activation of the myofibril ATPase activity. Results for compounds tested are provided in Table A. Compounds tested were prepared in accordance with the synthetic procedures described herein.

SMILES | CDMF75 IC15 [µM]
Cc1ccc(CN2C(=O)CN(c3ncc(Cl)cc3C)C(=O)C2C2COC2)cc1 (centres unmarked) [Compound 733, 1-(5-chloro-3-methyl-pyridin-2-yl)-4-(4-methyl-benzyl)-3-(oxetan-3-yl)-piperazine-2,5-dione] | 11.8
Cc1ccc(CN2C(=O)CN(c3ncc(Cl)cc3F)C(=O)C2C2COC2)cc1 (centres unmarked) [Compound 666, 1-(5-chloro-3-fluoropyridin-2-yl)-4-(4-methylbenzyl)-3-(oxetan-3-yl)piperazine-2,5-dione] | 2.3
CC(C)N1CC(=O)N(Cc2ccc(Cl)cc2)C2(CN(c3ccn(C)c(=O)c3)C2)C1=O [Compound 42, 5-(4-chlorobenzyl)-8-isopropyl-2-(1-methyl-2-oxo-1,2-dihydropyridin-4-yl)-2,5,8-triazaspiro-[3.5]nonane-6,9-dione] | 5.4
COCC(C)N1CC(=O)N(Cc2ccc(Cl)cc2)C2(CCN(c3ccccn3)C2)C1=O (centres unmarked) [Compound 86, 6-(4-chlorobenzyl)-9-(1-methoxypropan-2-yl)-2-(pyridin-2-yl)-2,6,9-triazaspiro[4.5]decane-7,10-dione] | 8.6
CC(=O)N1CC2(C1)C(=O)N(c1ccc(Cl)cc1F)CC(=O)N2Cc1ccc(F)cc1 [Compound 785, 2-acetyl-8-(4-chloro-2-fluorophenyl)-5-(4-fluorobenzyl)-2,5,8-triazaspiro[3.5]nonane-6,9-dione] | 5.0
CC(=O)N1CC(C2C(=O)N(c3ncc(Cl)cc3C)CC(=O)N2Cc2ccc(C(F)(F)F)cc2)C1 (centres unmarked) [Compound 653, 3-(1-acetylazetidin-3-yl)-1-(5-chloro-3-methylpyridin-2-yl)-4-(4-(trifluoromethyl)-benzyl)piperazine-2,5-dione] | 19.9
N#Cc1ccc(N2CC(=O)N(Cc3ccc(C(F)(F)F)cc3)C3(COC3)C2=O)c(F)c1 [Compound 280, 4-(6,9-dioxo-5-(4-(trifluoromethyl)benzyl)-2-oxa-5,8-diazaspiro[3.5]-nonan-8-yl)-3-fluorobenzonitrile] | 0.9
CC(C)N1CC(=O)N(Cc2ccc(C(F)(F)F)cc2)C2(CN(C=O)C2)C1=O [Compound 69, 8-isopropyl-6,9-dioxo-5-(4-(trifluoromethyl)benzyl)-2,5,8-triazaspiro[3.5]-nonane-2-carbaldehyde] | 15.4
Cc1cc(Cl)cnc1N1CC(=O)N(Cc2ccc(C(F)(F)F)cc2)C(C2(C)COC2)C1=O (centres unmarked) [Compound 652, 1-(5-chloro-3-methylpyridin-2-yl)-3-(3-methyloxetan-3-yl)-4-(4-(trifluoromethyl)-benzyl)piperazine-2,5-dione] | 9.0
CC(C)N1CC(=O)N(C(C)c2ccc(C(F)(F)F)cc2)C2(CN(c3ccccn3)C2)C1=O (centres unmarked) [Compound 138, 8-isopropyl-2-(pyridin-2-yl)-5-(1-(4-(trifluoromethyl)-phenyl)ethyl)-2,5,8-triazaspiro[3.5]nonane-6,9-dione] | 7.0
CNC(=O)N1CC2(C1)C(=O)N(c1ccc3oc(=O)ccc3c1)CC(=O)N2Cc1ccc(C(F)(F)F)cc1 [Compound 177, N-methyl-6,9-dioxo-8-(2-oxo-2H-chromen-6-yl)-5-(4-(trifluoromethyl)benzyl)-2,5,8-triazaspiro[3.5]-nonane-2-carboxamide] | 1.8
O=C1[C@H](C2CCC2)N(Cc2ccc(C(F)(F)F)cc2)C(=O)CN1c1ncc(Cl)cc1F [Compound 555, (S)-1-(5-chloro-3-fluoro-pyridin-2-yl)-3-cyclobutyl-4-(4-(trifluoromethyl)-benzyl)piperazine-2,5-dione] | 0.9
O=C1C(C2COC2)N(Cc2ccc(C(F)F)cc2)C(=O)CN1c1ncc(Cl)cc1F (centres unmarked) [Compound 650, 1-(5-chloro-3-fluoropyridin-2-yl)-4-(4-(difluoro-methyl)benzyl)-3-(oxetan-3-yl)piperazine-2,5-dione] | 2.5
O=C1C(C23CC(O)(C2)C3)N(Cc2ccc(F)cc2)C(=O)CN1c1ncc(Cl)cc1F (centres unmarked) [Compound 844, 1-(5-chloro-3-fluoropyridin-2-yl)-4-(4-fluorobenzyl)-3-(3-hydroxybicyclo[1.1.1]-pentan-1-yl)piperazine-2,5-dione] | 8.6
CNC(=O)N1CC2(C1)C(=O)N(c1ncc(Cl)cc1F)CC(=O)N2Cc1ccc(C(F)(F)F)cc1 [Compound 552, 8-(5-chloro-3-fluoropyridin-2-yl)-N-methyl-6,9-dioxo-5-(4-(trifluoromethyl)-benzyl)-2,5,8-triazaspiro-[3.5]nonane-2-carboxamide] | 0.5
CCN1CC(=O)N(Cc2ccc(Cl)cc2)C2(CCN(c3ccccn3)C2)C1=O (centres unmarked) [Compound 82, 6-(4-chlorobenzyl)-9-ethyl-2-(pyridin-2-yl)-2,6,9-triazaspiro[4.5]decane-7,10-dione] | 8.1
CNC(=O)N1CC2(C1)C(=O)N(C1CCCC1)CC(=O)N2Cc1ccc(C(F)(F)F)cc1 [Compound 70, 8-cyclopentyl-N-methyl-6,9-dioxo-5-(4-(trifluoromethyl)benzyl)-2,5,8-triazaspiro[3.5]-nonane-2-carboxamide] | 9.5
CC1(C2C(=O)N(c3ncc(Cl)cc3F)CC(=O)N2Cc2ccc(C(F)(F)F)cc2)COC1 (centres unmarked) [Compound 623, 1-(5-chloro-3-fluoropyridin-2-yl)-3-(3-methyloxetan-3-yl)-4-(4-(trifluoro-methyl)-benzyl)piperazine-2,5-dione] | 3.0
CC(C)N1CC(=O)N(Cc2ccc(Cl)cc2)C2(CN(c3ccc(C#N)cn3)C2)C1=O [Compound 63, 6-(5-(4-chlorobenzyl)-8-isopropyl-6,9-dioxo-2,5,8-triazaspiro[3.5]nonan-2-yl)nicotinonitrile] | 5.1
CNC(=O)c1cc(N2CC3(C2)C(=O)N(c2ccc(C#N)cc2F)CC(=O)N3Cc2ccc(C(F)(F)F)cc2)ccc1NC [Compound 545, 5-(8-(4-cyano-2-fluorophenyl)-6,9-dioxo-5-(4-(trifluoromethyl)benzyl)-2,5,8-triazaspiro[3.5]nonan-2-yl)-N-methyl-2-(methylamino)benzamide] | 0.2
CNc1c(C(=O)OC)cccc1N1CC2(C1)C(=O)N(c1ccc(C#N)cc1F)CC(=O)N2Cc1ccc(C(F)(F)F)cc1 [Compound 546, methyl 3-(8-(4-cyano-2-fluorophenyl)-6,9-dioxo-5-(4-(trifluoromethyl)benzyl)-2,5,8-triazaspiro[3.5]nonan-2-yl)-2-(methylamino)-benzoate] | 1.0
CC(C)N1CC(=O)N(Cc2ccccc2Cl)C(c2ccc(Cl)cc2)C1=O (centres unmarked) [Compound 302, 4-(2-chlorobenzyl)-3-(4-chlorophenyl)-1-isopropylpiperazine-2,5-dione] | 15.2
COC(=O)N1CCC2(C1)C(=O)N(C(C)C)CC(=O)N2Cc1ccc(C(F)(F)F)cc1 (centres unmarked) [Compound 110, methyl 9-isopropyl-7,10-dioxo-6-(4-(trifluoro-methyl)benzyl)-2,6,9-triazaspiro[4.5]decane-2-carboxylate] | 34.4
